# Assay results taken from patent US7507741B2, “Heterocyclic compounds” (SmithKline Beecham Corporation, priority 1999, dated 2009).
# Tests used:
# [1] = system: HN5 cells; assay: Methylene blue growth inhibition assay, HN5; assay type: cell-based; conditions: HN5, 72 h; human head and neck tumor cell line, 3 days
# Description: (§1) Human breast (BT474), head and neck (HN5) and gastric tumor (N87) cell lines were cultured in low glucose DMEM (Life Technologies 12320-032) containing 10% fetal bovine serum (FBS) at 37° C. in a humidified 10% CO2, 90% air incubator. The SV40 transformed human mammary epithelial cell line HB4a was transfected with either human H-ras cDNA (HB4a r4.2) or the human c-erbB2 cDNA (HB4a c5.2). The HB4a clones were cultured in RPMI containing 10% FBS, insulin (5 μg/ml), hydrocortisone (5 μg/ml), supplemented with the selection agent hygromycin B (50 μg/ml). Cells were harvested using trypsin/EDTA, counted using a haemocytometer, and plated in […] of the appropriate media, at the following densities, in a 96-well tissue culture plate (Falcon 3075): BT474 10,000 cells/well, HN5 3,000 cells/well, N87 10,000 cells/well, HB4a c5.2 3,000 cells/well, HB4a r4.2 3,000 cells/well. The next day, compounds were diluted in DMEM containing […] gentamicin, at twice the final required concentration, from 10 mM stock solutions in DMSO. […] of these dilutions were added to the […] of media currently on the cell plates. Medium containing 0.6% DMSO was added to control wells. Compounds diluted in DMEM were added to all cell lines, including the HB4a r4.2 and HB4a c5.2 cell lines. The final concentration of DMSO in all wells was 0.3%. Cells were incubated at 37° C., 10% CO2 for 3 days. Medium was removed by aspiration. Cell biomass was estimated by staining cells with 100 μl per well methylene blue (Sigma M9140, 0.5% in 50:50 ethanol:water), and incubation at room temperature for at least 30 minutes. Stain was removed, and the plates rinsed under a gentle stream of water, and air-dried. To release stain from the cells 100 μl of solubilization solution was added (1% N-lauroyl sarcosine, Sodium salt, Sigma L5125, in PBS), and plates were shaken gently for about 30 minutes. Optical density at 620 nm was measured on a microplate reader. Percent inhibition of cell growth was calculated relative to vehicle treated control wells. Concentration of compound that inhibits 50% of cell growth (IC50) was interpolated using nonlinear regression (Levenberg-Marquardt) and the equation, y=Vmax*(1−(x/(K+x)))+Y2, where “K” was equal to the IC50.
# [2] = molecular target: T1, c-erbB-2 (Homo sapiens, UniProt P04626); assay: Substrate phosphorylation assay, c-erbB-2; assay type: biochemical; conditions: recombinant intracellular domain, baculovirus expressed; ATP and peptide at Km; read-out: ErbB2 IC50
# T1 construct: baculovirus expressed, recombinant constructs of the intracellular domains of c-erbB-2 and c-erbB-4; made in house
# T1 sequence (P04626 676-1255 limits assumed): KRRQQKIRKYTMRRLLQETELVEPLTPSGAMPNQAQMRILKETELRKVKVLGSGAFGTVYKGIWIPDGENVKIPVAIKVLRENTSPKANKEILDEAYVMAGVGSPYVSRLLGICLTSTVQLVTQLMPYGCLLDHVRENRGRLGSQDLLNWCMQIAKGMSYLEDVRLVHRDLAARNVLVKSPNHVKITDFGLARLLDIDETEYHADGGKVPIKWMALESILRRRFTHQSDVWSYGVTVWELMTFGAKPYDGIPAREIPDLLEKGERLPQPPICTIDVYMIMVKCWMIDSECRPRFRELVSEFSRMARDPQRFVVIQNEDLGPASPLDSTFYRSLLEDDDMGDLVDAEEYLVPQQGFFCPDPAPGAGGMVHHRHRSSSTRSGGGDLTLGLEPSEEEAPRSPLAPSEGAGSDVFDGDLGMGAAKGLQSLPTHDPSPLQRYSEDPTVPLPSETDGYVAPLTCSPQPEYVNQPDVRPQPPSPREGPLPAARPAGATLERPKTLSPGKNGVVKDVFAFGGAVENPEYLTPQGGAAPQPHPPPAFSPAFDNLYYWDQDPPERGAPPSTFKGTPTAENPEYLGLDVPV
# Description: (§2) The substrate phosphorylation assays use baculovirus expressed, recombinant constructs of the intracellular domains of c-erbB-2 and c-erbB-4 that are constitutively active and EGFr isolated from solubilised A431 cell membranes. […] The reaction is stopped by the addition of EDTA (final concentration 0.15 mM) and a sample is transferred to a streptavidin-coated 96-well plate. The plate is washed and level of phosphotyrosine on the peptide is determined using a Europium-labelled antiphosphotyrosine antibody and quantified with a time-resolved fluorescence technique. The results are shown in Table 1 as the IC50 value in Micromolar ranges.
# [3] = system: HB4a c5.2 cells; assay: Methylene blue growth inhibition assay, HB4a c5.2; assay type: cell-based; conditions: HB4a-C5.2, 72 h; human mammary epithelial line transfected with human c-erbB2 cDNA, 3 days; read-out: HB4a c5.2 IC50 (cell growth)
# Description: as §1
# [4] = molecular target: T2, c-erbB-4 (Homo sapiens, UniProt Q15303); assay: Substrate phosphorylation assay, c-erbB-4; assay type: biochemical; conditions: recombinant intracellular domain, baculovirus expressed; ATP and peptide at Km; read-out: ErbB4 IC50
# T2 construct: baculovirus expressed, recombinant constructs of the intracellular domains of c-erbB-2 and c-erbB-4; made in house
# T2 sequence (Q15303 676-1308 limits assumed): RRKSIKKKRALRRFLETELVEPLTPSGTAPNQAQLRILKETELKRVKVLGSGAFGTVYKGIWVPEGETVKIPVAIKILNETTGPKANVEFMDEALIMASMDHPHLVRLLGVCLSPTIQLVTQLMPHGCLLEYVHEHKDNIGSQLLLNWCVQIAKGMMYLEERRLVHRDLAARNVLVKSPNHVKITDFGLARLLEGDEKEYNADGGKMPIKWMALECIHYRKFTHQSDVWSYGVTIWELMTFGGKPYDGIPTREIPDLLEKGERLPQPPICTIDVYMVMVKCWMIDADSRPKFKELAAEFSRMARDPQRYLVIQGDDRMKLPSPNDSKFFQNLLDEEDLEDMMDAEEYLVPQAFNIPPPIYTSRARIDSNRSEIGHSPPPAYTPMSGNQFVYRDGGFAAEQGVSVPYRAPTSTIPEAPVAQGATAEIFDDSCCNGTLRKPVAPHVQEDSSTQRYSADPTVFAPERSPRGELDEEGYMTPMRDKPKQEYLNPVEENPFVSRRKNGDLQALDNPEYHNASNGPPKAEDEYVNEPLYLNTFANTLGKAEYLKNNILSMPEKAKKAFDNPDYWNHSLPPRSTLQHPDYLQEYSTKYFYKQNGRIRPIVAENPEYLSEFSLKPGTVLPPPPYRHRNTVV
# Description: as §2, with “membranes. The method measures the ability of the isolated enzymes to catalyse the transfer of the γ-phosphate from ATP onto tyrosine residues in a biotinylated synthetic peptide (Biotin-[…].” for “membranes.”
# [5] = molecular target: T3, EGFr isolated from solubilised A431 cell membranes (Homo sapiens, UniProt P00533); assay: Substrate phosphorylation assay, EGFr; assay type: biochemical; conditions: ATP and peptide at Km
# T3 construct: EGFr isolated from solubilised A431 cell membranes; endogenous in cells; host or cells: A431 cell membranes, solubilised
# T3 sequence (P00533 25-1210): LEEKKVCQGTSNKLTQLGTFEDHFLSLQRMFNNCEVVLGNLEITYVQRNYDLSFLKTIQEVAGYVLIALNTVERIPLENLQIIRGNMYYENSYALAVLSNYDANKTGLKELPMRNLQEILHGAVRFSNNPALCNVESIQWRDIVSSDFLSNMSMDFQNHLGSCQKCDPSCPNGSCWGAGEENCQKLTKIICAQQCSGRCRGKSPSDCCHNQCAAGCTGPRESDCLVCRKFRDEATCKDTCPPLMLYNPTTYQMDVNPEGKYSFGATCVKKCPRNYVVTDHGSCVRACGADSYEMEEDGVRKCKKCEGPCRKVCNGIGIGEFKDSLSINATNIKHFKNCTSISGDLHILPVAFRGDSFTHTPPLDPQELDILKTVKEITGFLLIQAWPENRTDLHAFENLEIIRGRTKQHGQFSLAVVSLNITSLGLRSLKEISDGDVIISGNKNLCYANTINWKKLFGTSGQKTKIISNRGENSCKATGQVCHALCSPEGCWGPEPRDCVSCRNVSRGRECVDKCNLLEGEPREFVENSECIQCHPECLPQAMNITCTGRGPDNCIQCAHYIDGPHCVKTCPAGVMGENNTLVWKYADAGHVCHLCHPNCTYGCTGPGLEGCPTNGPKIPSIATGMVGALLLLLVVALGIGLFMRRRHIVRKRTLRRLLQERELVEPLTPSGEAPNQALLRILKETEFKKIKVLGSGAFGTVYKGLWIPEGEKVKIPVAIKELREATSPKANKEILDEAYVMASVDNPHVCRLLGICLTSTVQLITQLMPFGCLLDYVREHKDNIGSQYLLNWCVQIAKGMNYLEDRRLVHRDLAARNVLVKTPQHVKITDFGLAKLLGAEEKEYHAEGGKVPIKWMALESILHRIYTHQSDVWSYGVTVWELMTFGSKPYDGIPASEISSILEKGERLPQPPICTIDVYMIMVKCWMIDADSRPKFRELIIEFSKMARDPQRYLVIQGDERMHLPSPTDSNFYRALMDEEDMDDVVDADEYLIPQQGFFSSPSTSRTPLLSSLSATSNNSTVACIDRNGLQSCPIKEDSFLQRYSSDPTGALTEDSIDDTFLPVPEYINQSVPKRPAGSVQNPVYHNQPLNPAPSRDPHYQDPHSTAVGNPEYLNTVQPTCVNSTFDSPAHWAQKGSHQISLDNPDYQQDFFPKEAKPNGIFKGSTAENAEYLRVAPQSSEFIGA
# Description: as §2, with “technique.” for “technique. The results are shown in Table 1 as the IC50 value in Micromolar ranges.”
# [6] = system: N87 cells; assay: Methylene blue growth inhibition assay, N87; assay type: cell-based; conditions: 72 h; human gastric tumor cell line, 3 days
# Description: as §1
# [7] = system: BT474 cells; assay: Methylene blue growth inhibition assay, BT474; assay type: cell-based; conditions: BT-474, 72 h; human breast tumor cell line, 3 days
# Description: as §1
SMILES,IC50 [1] [µM],IC50 [2] [µM],IC50 [3] [µM],IC50 [4] [µM],IC50 [5] [µM],IC50 [6] [µM],IC50 [7] [µM]
"Cn1ccnc1S(=O)(=O)CCNCc1ccc(-c2ccc3ncnc(Nc4ccc(OCc5cccc(F)c5)c(Cl)c4)c3c2)o1 [Example 2, (4-(3-Fluorobenzyloxy)-3-chlorophenyl)-(6-(2-((2-(2-N-methylimidazolyl)-sulphonyl-ethylamino)-methyl)-furan-2-yl)-quinazolin-4-yl)-amine]",0.1 to 1,< 0.1,0.1 to 1,0.1 to 1,< 0.1,0.1 to 1,0.1 to 1
"O=S(=O)(CCOCc1ccc(-c2ccc3ncnc(Nc4ccc(OCc5cccc(F)c5)c(Cl)c4)c3c2)o1)c1ccccc1 [Example 3, N-{3-chloro-4-[(3-fluorobenzyl)oxy]phenyl}-6-(5-{[2-(phenylsulfonyl)ethoxy]methyl}-2-furyl)-4-quinazolinamine]",0.1 to 1,< 0.1,0.1 to 1,1 to 10,< 0.1,0.1 to 1,0.1 to 1
O=S(=O)(CCNCc1ccc(-c2ccc3ncnc(Nc4ccc(OCc5cccc(F)c5)c(Cl)c4)c3c2)o1)c1ccccn1 [Example 5],0.1 to 1,< 0.1,1 to 10,1 to 10,< 0.1,0.1 to 1,1 to 10
CCCS(=O)(=O)CCNCc1ccc(-c2cc3c(Nc4ccc(OCc5cccc(F)c5)cc4)ncnc3cn2)o1 [Example 6],0.1 to 1,< 0.1,0.1 to 1,1 to 10,< 0.1,0.1 to 1,0.1 to 1
CCCS(=O)(=O)CCNCc1ccc(-c2ccc3ncnc(Nc4ccc(OCc5cccc(F)c5)c(Cl)c4)c3c2)o1 [Example 7],1 to 10,< 0.1,1 to 10,0.1 to 1,< 0.1,1 to 10,1 to 10
CS(=O)(=O)CCNCCCc1ccc(-c2ccc3ncnc(Nc4ccc(OCc5ccccc5)c(Cl)c4)c3c2)o1 [Example 8],0.1 to 1,< 0.1,0.1 to 1,1 to 10,< 0.1,0.1 to 1,0.1 to 1
"CS(=O)(=O)CCOCc1ccc(-c2ccc3ncnc(Nc4ccc(OCc5cccc(F)c5)c(Cl)c4)c3c2)o1 [Example 13, N-{3-chloro-4-[(3-fluorobenzyl)oxy]phenyl}-6-(5-{[2-(methylsulfonyl)ethoxy]methyl}-2-furyl)-4-quinazolinamine]",0.1 to 1,< 0.1,0.1 to 1,0.1 to 1,< 0.1,0.1 to 1,0.1 to 1
"C=CS(=O)(=O)CCOCc1ccc(-c2ccc3ncnc(Nc4ccc(OCc5cccc(F)c5)c(Cl)c4)c3c2)o1 [Example 14, N-{3-chloro-4-[(3-fluorobenzyl)oxy]phenyl}-6-(5-{[2-(vinylsulfonyl)ethoxy]methyl}-2-furyl)-4-quinazolinamine]",1 to 10,< 0.1,1 to 10,0.1 to 1,< 0.1,1 to 10,1 to 10
"CS(=O)(=O)CCN(CC#N)Cc1ccc(-c2ccc3ncnc(Nc4ccc(OCc5cccc(F)c5)c(Cl)c4)c3c2)o1 [Example 15, 2-{{[5-(4-{3-chloro-4-[(3-fluorobenzyl)oxy]anilino}-6-quinazolinyl)-2-furyl]methyl}[2-(methylsulfonyl)ethyl]amino}acetonitrile]",< 0.1,< 0.1,0.1 to 1,0.1 to 1,< 0.1,0.1 to 1,< 0.1
"CS(=O)(=O)CCN(Cc1ccccc1)Cc1ccc(-c2ccc3ncnc(Nc4ccc(OCc5cccc(F)c5)c(Cl)c4)c3c2)o1 [Example 16, 6-[5-({benzyl[2-(methylsulfonyl)ethyl]amino}methyl)-2-furyl]-N-{3-chloro-4-[(3-fluorobenzyl)oxy]phenyl}-4-quinazolinamine]",1 to 10,0.1 to 1,1 to 10,0.1 to 1,–,0.1 to 1,0.1 to 1
"CCN(CCS(C)(=O)=O)Cc1ccc(-c2ccc3ncnc(Nc4ccc(OCc5cccc(F)c5)c(Cl)c4)c3c2)o1 [Example 17, N-{3-chloro-4-[(3-fluorobenzyl)oxy]phenyl}-6-[5-({ethyl[2-(methylsulfonyl)ethyl]amino}methyl)-2-furyl]-4-quinazolinamine]",0.1 to 1,< 0.1,0.1 to 1,0.1 to 1,< 0.1,0.1 to 1,0.1 to 1
"CCCN(CCS(C)(=O)=O)Cc1ccc(-c2ccc3ncnc(Nc4ccc(OCc5cccc(F)c5)c(Cl)c4)c3c2)o1 [Example 18, N-{3-chloro-4-[(3-fluorobenzyl)oxy]phenyl}-6-(5-{[[2-(methylsulfonyl)ethyl](propyl)amino]methyl}-2-furyl)-4-quinazolinamine]",0.1 to 1,< 0.1,0.1 to 1,< 0.1,< 0.1,0.1 to 1,0.1 to 1
CC(C)S(=O)(=O)CCNCc1ccc(-c2ccc3ncnc(Nc4ccc(OCc5cccc(F)c5)c(Cl)c4)c3c2)o1 [Example 19],–,< 0.1,0.1 to 1,0.1 to 1,–,0.1 to 1,0.1 to 1
